4 compounds from publication PMC10865806, “Structural insights into the molecular mechanism of high-level ceftazidime–avibactam resistance conferred by CMY-185” (mBio, 2024) can be followed below.

Holding throughout (format): biochemical, Escherichia coli
Data set [1] concerns the target T1, CMY-2 variant A114E_N346Y (Klebsiella pneumoniae, UniProt Q48434, A134E/N366Y).
T1 construct: all CMY-2 variant genes encoding the mature enzyme without a signal peptide were cloned into the protein expression plasmid vector pET-30b; made in house; host or cells: E. coli BL21 (DE3), pET-30b
Description: Steady-state hydrolysis kinetics. The settings on record: for Km / kcat: PBS pH 7.2, 25°C. The text has this:
(§1) We tested the enzymes, CMY-2, two single mutants V211S (CMY-42) and N346Y, three double mutants A114E_N346Y, Q120K_N346Y, and V211S_N346Y, and the quadruplet mutant CMY-185 to elucidate the impact on the kinetic properties resulting from the four amino acid substitutions present in CMY-185 compared with CMY-2 ([8]). The steady-state kinetic parameters kcat and Km (or Ki app) for nitrocefin, cephalothin, ceftazidime, and cefiderocol and the inhibition parameters Ki app, k2/K, k−2, and koff for avibactam are summarized in Table 1. During the hydrolysis of nitrocefin, we observed the reduction of the initial velocity at concentrations above 50 µM particularly for the CMY-2 variants harboring the N346Y substitution. As this could have represented substrate inhibition, we then determined the kinetics parameters for nitrocefin using the Haldane equation ([16]). […] In addition, during the hydrolysis of cefiderocol by CMY-185, the initial velocities at a concentration range of 3.7–59.4 µM were similar.
(§2) The steady-state kinetics were carried out on a UV-Visible spectrometer (UV-1280, Shimadzu, Japan) in PBS pH 7.2 at 25°C with a constant amount of enzyme and varying concentrations of the substrates. We tested nitrocefin, cephalothin, ceftazidime, and cefiderocol as the substrates and avibactam as the inhibitor. The steady-state kinetics parameters Km and kcat were determined with the Michaelis-Menten equation. For poorly hydrolyzed substrates, the Km value was assumed to be the competitive inhibition constant (Ki app) value according to previous studies ([17], [19]). Inhibition parameter values of Ki app, k2/K, k−2, and koff for avibactam were determined using a method as described previously ([33]). Cephalothin was used as the reporter substrate for competitive inhibition experiments, and its concentration was fixed at 100 µM. […] Inverse steady-state initial velocities were plotted against the concentration of the competitive inhibitor agents, such as ceftazidime, cefiderocol, and avibactam. The data were analyzed by linear regression analysis of the Dixon plot, and Ki app (observed) was determined by dividing the y-intercept value by the slope of the line. It was then corrected to account for the affinity of cephalothin for each enzyme using the Equation (1): […]

Data set [2] deals with T2, CMY-2 (Klebsiella pneumoniae, UniProt Q48434).
T2 construct: all CMY-2 variant genes encoding the mature enzyme without a signal peptide were cloned into the protein expression plasmid vector pET-30b; made in house; host or cells: E. coli BL21 (DE3), pET-30b
As to the kind of experiment: Steady-state hydrolysis kinetics.
Text: as §1, §2

Data set [3] has as its target T3, CMY-2 variant N346Y (Klebsiella pneumoniae, UniProt Q48434, N366Y).
T3 construct: all CMY-2 variant genes encoding the mature enzyme without a signal peptide were cloned into the protein expression plasmid vector pET-30b; made in house; host or cells: E. coli BL21 (DE3), pET-30b
Description: Steady-state hydrolysis kinetics. As to conditions: for Km / kcat: PBS pH 7.2, 25°C.
Text: as §1, §2

Data set [4] addresses T1, CMY-2 variant A114E_N346Y. As to the kind of experiment: Competitive inhibition of cephalothin hydrolysis and avibactam inhibition kinetics. The settings on record: reporter substrate cephalothin 100 µM, Dixon plot, read-out: Ki app.
Text: as §1
(§3) The steady-state kinetics were carried out on a UV-Visible spectrometer (UV-1280, Shimadzu, Japan) in PBS pH 7.2 at 25°C with a constant amount of enzyme and varying concentrations of the substrates. We tested nitrocefin, cephalothin, ceftazidime, and cefiderocol as the substrates and avibactam as the inhibitor. The steady-state kinetics parameters Km and kcat were determined with the Michaelis-Menten equation. For poorly hydrolyzed substrates, the Km value was assumed to be the competitive inhibition constant (Ki app) value according to previous studies ([17], [19]). Inhibition parameter values of Ki app, k2/K, k−2, and koff for avibactam were determined using a method as described previously ([33]). Cephalothin was used as the reporter substrate for competitive inhibition experiments, and its concentration was fixed at 100 µM. The enzyme concentration was 1–10 nM. Inverse steady-state initial velocities were plotted against the concentration of the competitive inhibitor agents, such as ceftazidime, cefiderocol, and avibactam. The data were analyzed by linear regression analysis of the Dixon plot, and Ki app (observed) was determined by dividing the y-intercept value by the slope of the line. It was then corrected to account for the affinity of cephalothin for each enzyme using the Equation (1):
(§4) (1) Ki app=Ki app (observed)/{1+[S]/Km (cephalothin)}
(§5) where [S] represents the concentration of the reporter substrate cephalothin, and Km (cephalothin) is the Km value of cephalothin for each enzyme.
(§6) The koff value was determined using a jump dilution assay. The enzyme and avibactam were mixed and preincubated at 25°C for 5 min. The concentration of avibactam depended on the enzyme and concentrations 10-fold higher from each Ki app (observed) value were adopted, which were determined based on the corrected competitive inhibition constants Ki app. Preincubated enzyme-avibactam mixture was then diluted 2,000-fold in the 100 µM cephalothin solution, and the hydrolysis of cephalothin was measured. Three independent measurements were performed for each enzyme and substrate or inhibitor combination. Curve fittings using linear or non-linear regression were performed with R 4.1.3 (R Core Team, 2022).

The target in data set [5] is T2, CMY-2. The description is as above. As to conditions: reporter substrate cephalothin 100 µM, Dixon plot, read-out: Ki app.
Text: as §1, §3, §4, §5, §6

Data set [6] has as its target T3, CMY-2 variant N346Y. The data set is described as above. The settings on record: N346Y; reporter substrate cephalothin 100 µM, Dixon plot; read-out: Ki app.
Text: as §1, §3, §4, §5, §6

The target in data set [7] is T4, V211S (CMY-42) (Klebsiella pneumoniae, UniProt Q48434, V231S).
T4 construct: all CMY-2 variant genes encoding the mature enzyme without a signal peptide were cloned into the protein expression plasmid vector pET-30b; made in house; host or cells: E. coli BL21 (DE3), pET-30b
Description: Steady-state hydrolysis kinetics. The settings on record: for Km / kcat: PBS pH 7.2, 25°C.
Text: as §1
as §3, with “(1): […]” for “(1):”

In data set [8] the target is T5, CMY-2 variant Q120K_N346Y (Klebsiella pneumoniae, UniProt Q48434, N366Y/Q140K).
T5 construct: all CMY-2 variant genes encoding the mature enzyme without a signal peptide were cloned into the protein expression plasmid vector pET-30b; made in house; host or cells: E. coli BL21 (DE3), pET-30b
Description: Steady-state hydrolysis kinetics. As to conditions: for Km / kcat: PBS pH 7.2, 25°C.
Text: as §1
as §3, with “(1): […]” for “(1):”

Data set [9] deals with T6, CMY-185 (Klebsiella pneumoniae, UniProt Q48434, A134E/N366Y/Q140K/V231S).
T6 construct: all CMY-2 variant genes encoding the mature enzyme without a signal peptide were cloned into the protein expression plasmid vector pET-30b; made in house; host or cells: E. coli BL21 (DE3), pET-30b
Description: Steady-state hydrolysis kinetics. The settings on record: for Km / kcat: PBS pH 7.2, 25°C.
Text: as §1
as §3, with “(1): […]” for “(1):”

Data set [10] deals with T7, CMY-2 variant V211S_N346Y (Klebsiella pneumoniae, UniProt Q48434, N366Y/V231S).
T7 construct: all CMY-2 variant genes encoding the mature enzyme without a signal peptide were cloned into the protein expression plasmid vector pET-30b; made in house; host or cells: E. coli BL21 (DE3), pET-30b
Description: Steady-state hydrolysis kinetics. As to conditions: V211S_N346Y; for Km / kcat: PBS pH 7.2, 25°C.
Text: as §1
as §3, with “(1): […]” for “(1):”

Data set [11] concerns O=C(Cc1cccs1)N[C@@H]1C(=O)N2C(C(=O)O)=C(/C=C/c3ccc([N+](=O)[O-])cc3[N+](=O)[O-])CS[C@H]12. Description: Steady-state hydrolysis kinetics. The settings on record: other: CMY-2, PBS pH 7.2, 25°C.
Text: as §1, §2

For data set [12], the system named is CC(=O)OCC1=C(C(=O)O)N2C(=O)[C@@H](NC(=O)Cc3cccs3)[C@H]2SC1. As to the kind of experiment: Steady-state hydrolysis kinetics. The settings on record: other: CMY-2, PBS pH 7.2, 25°C.
Text: as §1, §2

Where [13] appears, read: substrate 100 µM, 100–200 nM enzyme.
The mark [14] stands for this setting: substrate inhibition, Haldane equation.

On to `CC(C)(O/N=C(\C(=O)N[C@@H]1C(=O)N2C(C(=O)[O-])=C(C[n+]3ccccc3)CS[C@H]12)c1csc(N)n1)C(=O)O` [Ceftazidime, ceftazidime], for which the hydrolysis result in [1] (setting [13]), in [2] (setting [13]) and in [3] (setting [13]) was “no apparent hydrolysis” in each case. Moreover, the Ki was found to be 0.3 µM in data set [4], 0.7 ± 0.1 µM in data set [5] and 0.7 ± 0.2 µM in data set [6]. The Km (commonly the substrate concentration at which the rate is half of its maximum) turned out to be 74 ± 10 µM in data set [7], 5.3 ± 0.5 µM in data set [8], 2.2 ± 0.3 µM in data set [9] and 37 ± 2 µM in data set [10]. The kcat (commonly the number of substrate molecules converted per active site and unit of time at saturation) in data set [7] came out at 1.5 ± 0.2 s⁻¹; in data set [8], 0.077 ± 0.003 s⁻¹; in data set [9], 0.1 ± 0.0 s⁻¹; in [10], 0.3 ± 0.0 s⁻¹.

For `CC(=O)OCC1=C(C(=O)O)N2C(=O)[C@@H](NC(=O)Cc3cccs3)[C@H]2SC1` [Cephalothin, cephalothin], the Km in data set [1] was determined as 1.4 ± 0.1 µM; in [3], 3.9 ± 0.1 µM; in data set [7], 7.5 ± 1.1 µM; in [8], 18 ± 3 µM; in data set [9] it was 19 ± 1 µM; in data set [10], 4.4 ± 0.3 µM. The kcat in data set [1] was determined as 3.3 ± 0.1 s⁻¹; in data set [3], 18 ± 7 s⁻¹; in data set [7], 83 ± 7 s⁻¹; in [8], 42 ± 5 s⁻¹; in data set [9], 14 ± 1 s⁻¹; in data set [10] it was 9.6 ± 0.2 s⁻¹.

In the case of `O=C(Cc1cccs1)N[C@@H]1C(=O)N2C(C(=O)O)=C(/C=C/c3ccc([N+](=O)[O-])cc3[N+](=O)[O-])CS[C@H]12` [Nitrocefin, nitrocefin], the Michaelis-Menten constant (Km) in data set [1] is 16 ± 4 µM; in [3] it was 25 ± 3 µM; in data set [7] it was 29 ± 12 µM; in data set [8] it was 50 ± 40 µM; in data set [9] it was 39 ± 24 µM; in data set [10], 35 ± 10 µM. The kcat in [1] worked out at 57 ± 10 s⁻¹; in data set [3], 61 ± 5 s⁻¹; in data set [7], 320 ± 102 s⁻¹; in data set [8], 120 ± 90 s⁻¹; in data set [9], 17 ± 9 s⁻¹; in [10], 85 ± 18 s⁻¹. Moreover, the Ki in data set [1] (setting [14]) was found to be 68 ± 37 µM; in data set [2] (setting [14]) it was 160 µM; in data set [3] (setting [14]), 87 ± 25 µM; in [7] (setting [14]), 130 µM; in data set [8] (setting [14]), 14 ± 12 µM; in data set [9] (setting [14]) it was 18 ± 13 µM. In data set [10] (setting [14]), this compound registered a Ki of 100 µM.

For CMY-2 (Klebsiella pneumoniae), in data set [11], the Km was found to be 17 ± 5 µM; the kcat turned out to be 240 ± 50 s⁻¹; the kcat/Km (as a rule, the second-order rate constant that governs catalysis at low substrate concentration) stood at 1.4e+07 ± 5e+06 M⁻¹ s⁻¹. Also, in [12], the Km is 4.1 ± 0.3 µM, the kcat worked out at 54 ± 0.8 s⁻¹ and the kcat/Km is 1.3e+07 ± 1e+06 M⁻¹ s⁻¹.
